{"source": "patent US4472424A", "about": "“Esters of 2-thenoylmercaptopropionylglycine with substituted hydroxybenzenes, process for their preparation and pharmaceutical compositions containing same” (Sigma-Tau Industrie Farmaceutiche Riunite S.p.A., priority 1981, dated 1984)", "key": {"[1]": {"test": "Acute toxicity (LD50, Weil method), e.p. administration in mouse", "settings": "in vivo, ip, Weil method N = 4 K = 4", "description": "LD50 of the compounds of formula (I) assessed with the Weil method (\"Tables for convenient calculation of median effective dose (LD50 or ED 50) and instructions in their use\", Biometrics, 249-253, 1952), by e.p. administration in mouse is shown in Table 1."}, "bronchial secretion": {"test_system": "bronchial secretion", "test": "Expectorant activity (bronchial secretion in anesthetized rabbits, Perry et al.)", "type": "in vivo, rabbit", "settings": "20 to 40 mg", "method": "The tests were carried out on male rabbits, weighing 2-3 Kg, anesthetized with ethyl urethane, by following the method disclosed by Perry et al. (J. Pharm. Exp. Ther. 73, 65, 1941).\nEach cannula was connected to a feeding device which delivered a steady flow-rate of pre-heated air (36°-38° C.) at constant humidity (80%). At the lower end of each cannula, a graduated cylinder was fitted, wherein the bronchial secretion was collected. All of the animals breathed spontaneously and consequently they self-regulated the air intake suitable for normal respiration. After an hour following cannula insertion, the animals were administered orally (by stomach tube) the compounds of general formula (I) dissolved in distilled water at doses comprised between 20 and 40 mg. Each dose of drug was administered to 5 animals. The control animals (8) were given water only. The amount of secretion was determined after 1, 2 and 4 hours from administration."}, "[2]": {"test": "Mucolytic activity in vitro (thromboelastograph, Morandini et al.)", "set-up": "species or system human", "settings": "1 ml of a 10% solution of test compound", "method": "The tests were carried out in vitro by using the method disclosed by Morandini et al. (Lotta contro 1a tubercolosi 47, n. 4, 1977). A thromboelastograph was used to follow the variations induced by the compounds of general formula (I) and acetylcysteine on the rheological properties of human sputum."}, "[3]": {"test_system": "cough-inducing irritation", "test": "Antitussive activity (citric acid aerosol induced cough)", "type": "in vivo, guinea pig", "settings": "200 mg/Kg orally, one hour before test; for Number of coughs after treatment: 10 minutes exposure to 10% citric acid aerosol; for % Inhibition of coughs: before vs. after treatment", "method": "The cough-inducing irritation was studied in guinea pigs by exposing the experimental animals to an environment wherein a 10% citric acid solution was atomized by an aerosol device kept at a steady pressure with compressed air. The experimental animals were placed in a glass-walled chamber which was connected to an electrical recording apparatus suitable for counting coughs.\nThe period of exposure to the cough-inducing aerosol was 10 minutes. The experimental animals were subjected to a control test seven days before they were orally administered 200 mg/Kg of the compounds."}, "[4]": {"settings": "1 hour after oral administration"}, "[5]": {"settings": "2 hours after oral administration"}, "[6]": {"settings": "4 hours after oral administration"}}, "data": [{"smiles": "CCCOC(=O)c1ccc(OC(=O)CNC(=O)C(C)SC(=O)c2cccs2)cc1", "note": "(centres unmarked) [(1), propyl p-(2-thenoylmercaptopropionylglyciloxy) benzoate]", "values": [{"measurement": "LD50", "setting": "[1]", "value": 1580, "unit": "mg/kg"}, {"measurement": "Percentage variations ± s.e. of bronchial secretion versus basal values", "setting": "bronchial secretion; [4]", "value": "+0.9 ± 0.05%"}, {"measurement": "Percentage variations ± s.e. of bronchial secretion versus basal values", "setting": "bronchial secretion; [5]", "value": "+2.1 ± 0.01%"}, {"measurement": "Percentage variations ± s.e. of bronchial secretion versus basal values", "setting": "bronchial secretion; [6]", "value": "+3.8 ± 0.06%"}, {"measurement": "Percentage drop ± s.e. of the tracing versus maximum peak (mucolytic activity index)", "setting": "[2]; dilution 1/30", "value": 75, "unit": "%"}, {"measurement": "Percentage drop ± s.e. of the tracing versus maximum peak (mucolytic activity index)", "setting": "[2]; dilution 1/60", "value": 60, "unit": "%"}, {"measurement": "Number of coughs after treatment", "setting": "[3]", "value": 39, "unit": "coughs"}, {"measurement": "% Inhibition of coughs", "setting": "[3]", "value": 37, "unit": "%"}]}, {"smiles": "CC(=O)Nc1ccc(OC(=O)CNC(=O)C(C)SC(=O)c2cccs2)cc1", "note": "(centres unmarked) [(2), p-(2-thenoylmercaptopropionylglyciloxy) acetamido benzene]", "values": [{"measurement": "LD50", "setting": "[1]", "value": 1930, "unit": "mg/kg"}, {"measurement": "Percentage variations ± s.e. of bronchial secretion versus basal values", "setting": "bronchial secretion; [4]", "value": "+0.8 ± 0.03%"}, {"measurement": "Percentage variations ± s.e. of bronchial secretion versus basal values", "setting": "bronchial secretion; [5]", "value": "+1.2 ± 0.04%"}, {"measurement": "Percentage variations ± s.e. of bronchial secretion versus basal values", "setting": "bronchial secretion; [6]", "value": "+2.5 ± 0.07%"}, {"measurement": "Percentage drop ± s.e. of the tracing versus maximum peak (mucolytic activity index)", "setting": "[2]; dilution 1/30", "value": 86, "unit": "%"}, {"measurement": "Percentage drop ± s.e. of the tracing versus maximum peak (mucolytic activity index)", "setting": "[2]; dilution 1/60", "value": 65, "unit": "%"}, {"measurement": "Number of coughs after treatment", "setting": "[3]", "value": 30, "unit": "coughs"}, {"measurement": "% Inhibition of coughs", "setting": "[3]", "value": 46, "unit": "%"}]}, {"smiles": "COC(=O)c1ccccc1OC(=O)CNC(=O)C(C)SC(=O)c1cccs1", "note": "(centres unmarked) [(3), methyl o-(2-thenoylmercaptopropionylglyciloxy) benzoate]", "values": [{"measurement": "LD50", "setting": "[1]", "value": 1780, "unit": "mg/kg"}, {"measurement": "Percentage variations ± s.e. of bronchial secretion versus basal values", "setting": "bronchial secretion; [4]", "value": "+0.3 ± 0.05%"}, {"measurement": "Percentage variations ± s.e. of bronchial secretion versus basal values", "setting": "bronchial secretion; [5]", "value": "+0.9 ± 0.05%"}, {"measurement": "Percentage variations ± s.e. of bronchial secretion versus basal values", "setting": "bronchial secretion; [6]", "value": "+1.4 ± 0.08%"}, {"measurement": "Percentage drop ± s.e. of the tracing versus maximum peak (mucolytic activity index)", "setting": "[2]; dilution 1/30", "value": 85, "unit": "%"}, {"measurement": "Percentage drop ± s.e. of the tracing versus maximum peak (mucolytic activity index)", "setting": "[2]; dilution 1/60", "value": 65, "unit": "%"}, {"measurement": "Number of coughs after treatment", "setting": "[3]", "value": 31, "unit": "coughs"}, {"measurement": "% Inhibition of coughs", "setting": "[3]", "value": 49, "unit": "%"}]}, {"smiles": "CCOC(=O)c1ccccc1OC(=O)CNC(=O)C(C)SC(=O)c1cccs1", "note": "(centres unmarked) [(4), ethyl o-(2-thenoylmercaptopropionylglyciloxy) benzoate]", "values": [{"measurement": "LD50", "setting": "[1]", "value": 2150, "unit": "mg/kg"}, {"measurement": "Percentage variations ± s.e. of bronchial secretion versus basal values", "setting": "bronchial secretion; [4]", "value": "+0.8 ± 0.03%"}, {"measurement": "Percentage variations ± s.e. of bronchial secretion versus basal values", "setting": "bronchial secretion; [5]", "value": "+1.9 ± 0.06%"}, {"measurement": "Percentage variations ± s.e. of bronchial secretion versus basal values", "setting": "bronchial secretion; [6]", "value": "+3.0 ± 0.04%"}, {"measurement": "Percentage drop ± s.e. of the tracing versus maximum peak (mucolytic activity index)", "setting": "[2]; dilution 1/30", "value": 82, "unit": "%"}, {"measurement": "Percentage drop ± s.e. of the tracing versus maximum peak (mucolytic activity index)", "setting": "[2]; dilution 1/60", "value": 60, "unit": "%"}, {"measurement": "Number of coughs after treatment", "setting": "[3]", "value": 30, "unit": "coughs"}, {"measurement": "% Inhibition of coughs", "setting": "[3]", "value": 52, "unit": "%"}]}, {"smiles": "CCCOC(=O)c1ccccc1OC(=O)CNC(=O)C(C)SC(=O)c1cccs1", "note": "(centres unmarked) [(5), propyl o-(2-thenoylmercaptopropionylglyciloxy) benzoate]", "values": [{"measurement": "LD50", "setting": "[1]", "value": 2080, "unit": "mg/kg"}, {"measurement": "Percentage variations ± s.e. of bronchial secretion versus basal values", "setting": "bronchial secretion; [4]", "value": "+0.9 ± 0.06%"}, {"measurement": "Percentage variations ± s.e. of bronchial secretion versus basal values", "setting": "bronchial secretion; [5]", "value": "+1.7 ± 0.05%"}, {"measurement": "Percentage variations ± s.e. of bronchial secretion versus basal values", "setting": "bronchial secretion; [6]", "value": "+3.2 ± 0.06%"}, {"measurement": "Percentage drop ± s.e. of the tracing versus maximum peak (mucolytic activity index)", "setting": "[2]; dilution 1/30", "value": 78, "unit": "%"}, {"measurement": "Percentage drop ± s.e. of the tracing versus maximum peak (mucolytic activity index)", "setting": "[2]; dilution 1/60", "value": 57, "unit": "%"}, {"measurement": "Number of coughs after treatment", "setting": "[3]", "value": 28, "unit": "coughs"}, {"measurement": "% Inhibition of coughs", "setting": "[3]", "value": 49, "unit": "%"}]}, {"smiles": "CCCCOC(=O)c1ccccc1OC(=O)CNC(=O)C(C)SC(=O)c1cccs1", "note": "(centres unmarked) [(6), butyl o-(2-thenoylmercaptopropionylglyciloxy) benzoate]", "values": [{"measurement": "LD50", "setting": "[1]", "value": 1800, "unit": "mg/kg"}, {"measurement": "Percentage variations ± s.e. of bronchial secretion versus basal values", "setting": "bronchial secretion; [4]", "value": "+0.5 ± 0.04%"}, {"measurement": "Percentage variations ± s.e. of bronchial secretion versus basal values", "setting": "bronchial secretion; [5]", "value": "+1.0 ± 0.06%"}, {"measurement": "Percentage variations ± s.e. of bronchial secretion versus basal values", "setting": "bronchial secretion; [6]", "value": "+1.9 ± 0.04%"}, {"measurement": "Percentage drop ± s.e. of the tracing versus maximum peak (mucolytic activity index)", "setting": "[2]; dilution 1/30", "value": 75, "unit": "%"}, {"measurement": "Percentage drop ± s.e. of the tracing versus maximum peak (mucolytic activity index)", "setting": "[2]; dilution 1/60", "value": 55, "unit": "%"}, {"measurement": "Number of coughs after treatment", "setting": "[3]", "value": 25, "unit": "coughs"}, {"measurement": "% Inhibition of coughs", "setting": "[3]", "value": 49, "unit": "%"}]}, {"smiles": "CC(=O)N[C@@H](CS)C(=O)O", "note": "[Acetylcysteine, acetylcysteine, reference compound]", "values": [{"measurement": "Percentage drop ± s.e. of the tracing versus maximum peak (mucolytic activity index)", "setting": "[2]; dilution 1/30", "value": 75, "unit": "%"}, {"measurement": "Percentage drop ± s.e. of the tracing versus maximum peak (mucolytic activity index)", "setting": "[2]; dilution 1/60", "value": 22, "unit": "%"}]}]}
